Data from patent publication US20250136997A1, “COMPOSITIONS FOR SEQUESTERING ISOAMYL AMINE AND METHODS OF USE THEREFOR” (University of Louisville Research Foundation, Inc., priority 2023, published 2025).

Legend:
[1] = tested on: microglial cells; test: FACS analysis of apoptotic bodies (ABs) in supernatants of cultured microglial cells; type: cell-based, mouse; settings: microglial cells isolated from young mice
Protocol: Flow cytometry. Isolated cells were incubated with blocking solution (0.5% BSA/PBS) for 15 minutes at 4° C. For surface staining, cells were stained with various antibodies at room temperature for 1 hour and then washed with PBS. Washed cells were stained for 40 minutes at 4° C. with the appropriate fluorochrome-conjugated antibodies in PBS with 2% FBS. Data were acquired using a BD FACSCalibur flow cytometer (BD Biosciences, San Jose, CA) and analyzed using FlowJo software (Tree Star Inc., Ashland, OR). The following antibodies purchased from Biolegend were used for flow cytometry: anti-CD11b (101208), anti-CD45 (103112) and FITC Annexin V (640945). For the ABs analysis, extracellular vesicles were collected. To recognize the ABs, as described previously, size gates set based on forward scatter (FSC) were applied in combination with Annexin V staining. From these vesicles total ABs were detected using Annexin V staining events.
Isolation of apoptotic bodies. Apoptotic bodies (ABs) were isolated from culture supernatants as previously described. Briefly, cell culture medium was harvested and cells were removed by pelleting at 335×g for 10 minutes. To remove cell-debris, supernatants were centrifuged at 1,000×g for 10 minutes, followed by another centrifugation at 2,000×g for 30 minutes to pellet ABs. Pelleted ABs were resuspended and washed with PBS.

[2] = tested on: S100A8 promoter; test: Luciferase reporter with S100A8 promoter in microglia; type: cell-based, mouse
Excerpt: Construction of the S100A8 promoter into the luciferase plasmid vector. To determine the activity of IAA on the promoter of S100A8, a sequence containing 1,037 bp of S100A8 promoter (GENBANK® Accession #: L76381) upstream −1,037 to −1 from transcription start site (TSS) was constructed into the luciferase C1 vector (Addgene, #163523). A DNA fragment was generated by PCR amplification with genomic DNA extracted from mouse liver tissue using DNeasy Blood & Tissue Kits (Qiagen, #69504). PCR was conducted using Q5 High-Fidelity PCR kit (New England Biolabs® Inc.) with the primers 51008A-prom, pLuc163523 and genomic DNA, and luciferase C1 plasmid as the template, respectively. The two PCR products purified using the Gel extraction kit (Qiagen) were seamlessly assembled into the pLuc-S100p using the NEBuilder HiFi DNA Assembly Cloning Kit (New England Biolabs® Inc.). The plasmid pLuc-S100p was transformed into DH5a and selected using kanamycin resistance. The DNA sequence was confirmed by DNA sequencing.
Site-directed mutagenesis within the S100A8 promoter. A mutant of IAA with the potential binding site on the S100A8 promoter was generated with the oligonucleotide primer S1008A-prom-Mut, which was designed to specifically disrupt the putative S100A8 binding site at its promoter (FIG. 3C). Q5® Site-Directed Mutagenesis Kit (New England Biolabs, MA, USA) was used in conjunction with specific primers (Table 3) to introduce S100A8 promoter mutations in the pLuc-S100p construct according to the manufacturer's instructions. After mutant strand synthesis and ligation, resultant plasmids were introduced into E. coli and transformants were selected using kanamycin resistance. The DNA sequence of mutants was confirmed by DNA sequencing.

[3] = tested on: promoter of S100A8; test: SPR of p53 protein and biotinylated oligo with or without IAA; type: binding, mouse
[4] = Single-strand gel shift (SSGS) assay; type: binding; settings: oligos (2 μM) incubated with IAA (10 μM), 15% PAGE
Protocol: Single-strand gel shift (SSGS) assay. To identify the metabolite binding site of S100A8, we synthesized a series of oligonucleotides (oligos) (Eurofins Genomics LLC, KY) specific to the response putative IAA binding site at the promoter region of S100A8. The oligos ([…]) were incubated with […] of IAA at 37° C. for 30 minutes following electrophoresis on a 15% native PAGE without SDS in 0.5×TBE buffer. The oligos were stained with ethidium bromide ([…]) and visualized under ultraviolet (UV) light.
Given induction of bacterial metabolite IAA causes the degeneration of microglia by elevation of S100A8 at both the transcription and protein level, we hypothesized that IAA might directly target the promoter of S100A8 and regulate the expression of S100A8. Studying the interaction of metabolites, particularly small molecules, with nucleic acid is challenging due to a lack of appropriate tags for the metabolites. Because of this challenge, we developed a strategy raising the possibility to investigate the interaction of small molecules and nucleic acid.
To test our hypothesis, we first synthesized short single-DNA strains (around 60 mer length each) whose sequences spanned the promoter of S100A8 (FIG. 13A and Table 5). The site and sequence of the promoter and transcription start site (TSS) were determined according to the entire mRNA (Accession #NC_000069.7 (90,576,378 . . . 90,577,341)) and genomic sequence (Accession #L76381) from the NCBI nucleic acid database (FIG. 13A). These DNA oligos (2 μM) were incubated with IAA (10 μM) following native PAGE analysis (FIG. 4A). […] To define the accurate binding site of IAA, we synthesized 10 mer length DNA oligos covering the sequence of S100p1 (Table 5). Unfortunately, the 10 mer length oligo lost the conformational mobility shift in PAGE (FIG. 13C). We then tested the mobility shift with 20 mer oligos. […]

## CC(C)CCN [IAA, isoamylamine]
[1]
  ABs released into the culture supernatants: increase
[2]; p53 KO microglia with additional p53
  effect of IAA on the S100A8 transcription (luciferase): recovered
[2]; p53 deficiency (p53 KO microglia)
  IAA-induced S100A8 activation (luciferase): attenuated
[2]; wild-type promoter, microglia, 12 h after IAA
  luciferase activity, S100A8 promoter sequence: activated
[3]
  p53 binding to promoter of S100A8 (SPR): p53 binds to promoter of S100A8 in an IAA dependent manner

## S100p1-G: CTGTGGGCAG CTGGCCAAGC (SEQ ID NO: 8), S100A8 promoter −57 . . . −38 (DNA CTGTGGGCAGCTGGCCAAGC; chemistry not given here)
[4]
  mobility shift on native PAGE after incubation with IAA: displayed a shift
